Experimental data: PubChem BioAssay AID330 (DTP/NCI, 2004)
Where “and” joins values, the source holds several entries; their conditions need not be identical. Equal values may be shown once. Toxic doses and inconclusive results are not listed.

Test system: P388 leukemia ip, CD2F1 mice, survival T/C
Assay: NCI In Vivo Anticancer Drug Screen. Data for tumor model P388 Leukemia (intraperitoneal) in CD2F1 (CDF1) mice
Conditions: endpoint: median survival time, higher = longer survival
In short: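 Mice carrying the transplanted tumor received test compound or vehicle. Survival was recorded in each group, and the value is the treated-group measurement divided by that of the vehicle-treated control group.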

[1] = dose: 50.0 mg/kg/injection, schedule: Q01DX009 (ip), vehicle: Klucel (hydroxypropylcellulose) (HPC)
[2] = dose: 50.0 mg/kg/injection, schedule: Q01DX005 (ip), vehicle: saline with Tween-80
[3] = dose: 100.0 mg/kg/injection, schedule: Q01DX005 (ip), vehicle: saline with Tween-80
[4] = dose: 200.0 mg/kg/injection, schedule: Q01DX005 (ip), vehicle: saline with Tween-80
[5] = dose: 25.0 mg/kg/injection, schedule: Q01DX009 (ip), vehicle: saline with Tween-80
[6] = dose: 50.0 mg/kg/injection, schedule: Q01DX009 (ip), vehicle: saline with Tween-80
[7] = dose: 100.0 mg/kg/injection, schedule: Q01DX009 (ip), vehicle: saline with Tween-80
[8] = dose: 200.0 mg/kg/injection, schedule: Q01DX009 (ip), vehicle: saline with Tween-80
[9] = dose: 100.0 mg/kg/injection, schedule: Q01DX001 (ip), vehicle: Klucel (hydroxypropylcellulose) (HPC)
[10] = dose: 200.0 mg/kg/injection, schedule: Q01DX001 (ip), vehicle: Klucel (hydroxypropylcellulose) (HPC)
[11] = dose: 400.0 mg/kg/injection, schedule: Q01DX001 (ip), vehicle: Klucel (hydroxypropylcellulose) (HPC)
[12] = dose: 12.5 mg/kg/injection, schedule: Q04DX003 (ip), vehicle: saline
[13] = dose: 25.0 mg/kg/injection, schedule: Q04DX003 (ip), vehicle: saline
[14] = dose: 100.0 mg/kg/injection, schedule: Q01DX009 (ip), vehicle: Klucel (hydroxypropylcellulose) (HPC)
[15] = dose: 200.0 mg/kg/injection, schedule: Q01DX009 (ip), vehicle: Klucel (hydroxypropylcellulose) (HPC)

## CC1=C(O)C(=O)[C@@H]2O[C@@H]2C1=O
dose: 1.5 mg/kg/injection, schedule: Q01DX007 (ip), vehicle: saline
  T/C: 111 % of control
dose: 3.0 mg/kg/injection, schedule: Q01DX007 (ip), vehicle: saline
  T/C: 122 % of control
dose: 6.0 mg/kg/injection, schedule: Q01DX007 (ip), vehicle: saline
  T/C: 122 % of control

## O=C1CSC(COc2ccc(Cl)cc2Cl)O1 (stereo not drawn)
dose: 25.0 mg/kg/injection, schedule: Q01DX009 (ip), vehicle: Klucel (hydroxypropylcellulose) (HPC)
  T/C: 100 % of control
[1]
  T/C: 97 % of control

## CCCCCCC(=O)/C=C/c1ccc(Br)cc1
[2]
  T/C: 104 % of control
[3]
  T/C: 104 % of control
[4]
  T/C: 97 % of control

## C=C1CCC2(C)C(O)CC3(C)C(CCC4C5(C)CCC(OC(C)=O)C(C)(C)C5CCC43C)C2C1C (stereo not drawn)
dose: 1.0 mg/kg/injection, schedule: Q01DX009 (ip), vehicle: alcohol
  T/C: 107 % of control
dose: 2.0 mg/kg/injection, schedule: Q01DX009 (ip), vehicle: alcohol
  T/C: 105 % of control
dose: 4.0 mg/kg/injection, schedule: Q01DX009 (ip), vehicle: alcohol
  T/C: 115 % of control

## O=[N+]([O-])c1ccc(CSC(=S)Nc2ccc(Cl)c(Cl)c2)cc1
[5]
  T/C: 106 % of control
dose: 25.0 mg/kg/injection, schedule: Q01DX009 (ip), vehicle: saline
  T/C: 109 % of control
[6]
  T/C: 114 % of control
dose: 50.0 mg/kg/injection, schedule: Q01DX009 (ip), vehicle: saline
  T/C: 107 % of control
dose: 50.0 mg/kg/injection, schedule: Q01DX009 (ip), vehicle: suspension in saline
  T/C: 103 % of control
[7]
  T/C: 115 % of control
dose: 100.0 mg/kg/injection, schedule: Q01DX009 (ip), vehicle: saline
  T/C: 109 % of control
dose: 100.0 mg/kg/injection, schedule: Q01DX009 (ip), vehicle: suspension in saline
  T/C: 113 % of control
[8]
  T/C: 97 % of control
dose: 200.0 mg/kg/injection, schedule: Q01DX009 (ip), vehicle: saline
  T/C: 116 % of control
dose: 200.0 mg/kg/injection, schedule: Q01DX009 (ip), vehicle: suspension in saline
  T/C: 115 % of control

## O=S(=O)(O)Nc1ccccc1
dose: 12.5 mg/kg/injection, schedule: Q01DX009 (ip), vehicle: water
  T/C: 100 % of control
dose: 25.0 mg/kg/injection, schedule: Q01DX009 (ip), vehicle: water
  T/C: 104 % of control
dose: 50.0 mg/kg/injection, schedule: Q01DX009 (ip), vehicle: water
  T/C: 99 % of control
dose: 100.0 mg/kg/injection, schedule: Q01DX009 (ip), vehicle: water
  T/C: 100 % of control
dose: 200.0 mg/kg/injection, schedule: Q01DX009 (ip), vehicle: water
  T/C: 101 % of control

## Cc1ccc(C(=O)n2c(Br)c(/C=N/NC(N)=S)c3ccccc32)cc1
[9]
  T/C: 100 % of control
[10]
  T/C: 100 % of control
[11]
  T/C: 95 % of control

## COC(=O)C(C)CN1CCCC1 (stereo not drawn)
[12]
  T/C: 100 % of control
[13]
  T/C: 100 % of control
dose: 50.0 mg/kg/injection, schedule: Q04DX003 (ip), vehicle: saline
  T/C: 100 % of control

## CCOC(=O)c1cc(N(CCCl)CCCl)ccc1OC(=O)CC
dose: 50.0 mg/kg/injection, schedule: Q04DX003 (ip), vehicle: Klucel (hydroxypropylcellulose) (HPC)
  T/C: 100 % of control
dose: 100.0 mg/kg/injection, schedule: Q04DX003 (ip), vehicle: Klucel (hydroxypropylcellulose) (HPC)
  T/C: 100 % of control
dose: 200.0 mg/kg/injection, schedule: Q04DX003 (ip), vehicle: Klucel (hydroxypropylcellulose) (HPC)
  T/C: 97 % of control

## CCOc1cnc(CO)o1
dose: 100.0 mg/kg/injection, schedule: Q04DX003 (ip), vehicle: saline
  T/C: 103 % of control
dose: 200.0 mg/kg/injection, schedule: Q04DX003 (ip), vehicle: saline
  T/C: 104 % of control
dose: 400.0 mg/kg/injection, schedule: Q04DX003 (ip), vehicle: saline
  T/C: 97 % of control

## O=Cc1cccc2[nH]ccc12
dose: 50.0 mg/kg/injection, schedule: Q01DX005 (ip), vehicle: Klucel (hydroxypropylcellulose) (HPC)
  T/C: 102 % of control
dose: 100.0 mg/kg/injection, schedule: Q01DX005 (ip), vehicle: Klucel (hydroxypropylcellulose) (HPC)
  T/C: 99 % of control
dose: 200.0 mg/kg/injection, schedule: Q01DX005 (ip), vehicle: Klucel (hydroxypropylcellulose) (HPC)
  T/C: 96 % of control

## CC1COC2(CCC(=CBr)CC2)O1 (stereo not drawn)
[9]
  T/C: 96 % of control
[10]
  T/C: 107 % of control
[11]
  T/C: 100 % of control

## CCOC(=O)CCCCCO[Si](c1ccccc1)(c1ccccc1)C(C)(C)C
dose: 60.0 mg/kg/injection, schedule: Q01DX005 (ip), vehicle: saline with Tween-80
  T/C: 110 % of control
dose: 120.0 mg/kg/injection, schedule: Q01DX005 (ip), vehicle: saline with Tween-80
  T/C: 99 % of control
dose: 240.0 mg/kg/injection, schedule: Q01DX005 (ip), vehicle: saline with Tween-80
  T/C: 88 % of control

## C=CCOc1cc2c(cc1C(C)c1cc(OC)c(OC)c(OC)c1)OCO2 (stereo not drawn)
[2]
  T/C: 101 % of control
[3]
  T/C: 99 % of control
[4]
  T/C: 108 % of control

## C1=C\CCCCCCCC/1
dose: 1.56 mg/kg/injection, schedule: Q01DX009 (ip), vehicle: saline with Tween-80
  T/C: 100 % of control
dose: 3.13 mg/kg/injection, schedule: Q01DX009 (ip), vehicle: saline with Tween-80
  T/C: 91 % of control
dose: 6.25 mg/kg/injection, schedule: Q01DX009 (ip), vehicle: saline with Tween-80
  T/C: 100 % of control
dose: 6.25 mg/kg/injection, schedule: Q04DX003 (ip), vehicle: saline
  T/C: 109 % of control
[12]
  T/C: 100 % of control
[13]
  T/C: 104 % of control

## Cc1c(Cl)cccc1NC(=O)c1cccc([N+](=O)[O-])c1O
[6]
  T/C: 102 % of control
[7]
  T/C: 93 % of control

## CN(C)C(=S)Nc1ccc(S(=O)(=O)N2CCCCC2)cc1
[1]
  T/C: 105 % of control
[14]
  T/C: 105 % of control
[15]
  T/C: 105 % of control
dose: 400.0 mg/kg/injection, schedule: Q01DX009 (ip), vehicle: Klucel (hydroxypropylcellulose) (HPC)
  T/C: 101 % of control

## CCCCCCCCCCCCCCCC(=O)O[C@@H]1[C@@H](C)[C@@]2(O)[C@@H](C=C(CO)C[C@]3(O)C(=O)C(C)=C[C@@H]23)[C@H]2[C@]1(OC(C)=O)[C@]2(C)CO
dose: 0.13 mg/kg/injection, schedule: Q01DX005 (ip), vehicle: distilled water + Tween-80
  T/C: 117 % of control and 120 % of control
dose: 0.25 mg/kg/injection, schedule: Q01DX005 (ip), vehicle: distilled water + Tween-80
  T/C: 111 % of control
dose: 0.5 mg/kg/injection, schedule: Q01DX005 (ip), vehicle: distilled water + Tween-80
  T/C: 106 % of control

## O=[N+]([O-])c1ccc(SC(=S)N2CCCCC2)c([N+](=O)[O-])c1
[1]
  T/C: 105 % of control
[14]
  T/C: 106 % of control
[15]
  T/C: 111 % of control

## FC(F)(F)C[P+](c1ccccc1)(c1ccccc1)c1ccccc1
dose: 12.5 mg/kg/injection, schedule: Q01DX001 (ip), vehicle: saline
  T/C: 100 % of control and 109 % of control
dose: 25.0 mg/kg/injection, schedule: Q01DX001 (ip), vehicle: saline
  T/C: 108 % of control and 117 % of control
dose: 50.0 mg/kg/injection, schedule: Q01DX001 (ip), vehicle: saline
  T/C: 104 % of control

## c1ccc2c(c1)Cc1nc3ccccc3nc1-2
[7]
  T/C: 100 % of control
[8]
  T/C: 95 % of control
dose: 400.0 mg/kg/injection, schedule: Q01DX009 (ip), vehicle: saline with Tween-80
  T/C: 100 % of control

## CS(=O)(=O)OCCBr
dose: 12.5 mg/kg/injection, schedule: Q01DX009 (ip), vehicle: saline with Tween-80
  T/C: 105 % of control
dose: 25.0 mg/kg/injection, schedule: Q01DX005 (ip), vehicle: saline with Tween-80
  T/C: 108 % of control
[5]
  T/C: 105 % of control
[2]
  T/C: 110 % of control
[6]
  T/C: 114 % of control
dose: 100.0 mg/kg/injection, schedule: Q01DX001 (ip), vehicle: saline with Tween-80
  T/C: 103 % of control
[3]
  T/C: 106 % of control
[7]
  T/C: 116 % of control

## C=C1C(O)C2(O)OCC34C(CC5C(C)=CC(=O)C(O)C5(C)C23)OC(=O)C(OC(=O)C/C=C(\C)CCCCC)C14 (stereo not drawn)
dose: 2.0 mg/kg/injection, schedule: Q01DX005 (ip), vehicle: saline + alcohol
  T/C: 161 % of control
dose: 4.0 mg/kg/injection, schedule: Q01DX005 (ip), vehicle: saline + alcohol
  T/C: 168 % of control and 169 % of control

## CC(C)n1cnc2c(Cl)ncnc21
[5]
  T/C: 100 % of control
[6]
  T/C: 104 % of control
[7]
  T/C: 95 % of control
